Data reported in patent US20070298997A1, “Compounds useful in treating diabetic microvascular complications and age-related macular degeneration” (priority 2003, published 2007).

Key:
[1] = tested on: Retinal capillary endothelial cells (RCEC); assay: Quantification of viable cells by MTT assay, RCEC; type: cell-based, bovine; settings: 5 μM, 48 h
Method: FIG. 2 illustrates the specific inhibition of endothelial cell proliferation by recombinant kallistatin. RCEC were treated with recombinant kallistatin at concentrations of 5,10, 20, 40, 80 and 160 nM for 72 h. Viable cells were quantified by MTT assay. […] This effect appeared to be kallistatin concentration-dependent, with an apparent IC50 of 50 nM (FIG. 2) which is similar to that of K5, a known angiogenic inhibitor (Zhang et al., 2001).
FIG. 7 illustrates the effects of B1 and B2 kinin receptor antagonists on RCEC. In order to test whether the anti-angiogenic activity of kallistatin is via reducing kinin production by inhibiting kallikrein activity, RCEC were treated with 5 μM des-Arg^9-[Leu^8]-bradykinin, a specific antagonist of the B1 kinin receptor or Hoe-140, a specific B2 kinin receptor antagonist, in the presence or absence of 40 nM kallistatin for 48 h, and viable cells were quantified by MTT assay.
Quantification of viable cells: Cells were plated in 12-well plates in triplicate and cultured in the growth medium until they reached 60-70% of confluency. The culture medium was replaced with a medium containing 1% fetal bovine serum (FBS). Recombinant kallistatin was added to the cover medium to various concentrations and incubated with the cells for 72 h. The viable cells were quantified by the MTT (3-[4,5-dimethylthiazol-2-yl]-2,5-dephenyl tetrazolium bromid, Roche, Mannheim, Germany) assay following a protocol recommended by the manufacturer. The effect of kallistatin on viable cell number was analyzed using Student's t test.

B1 receptor = settings: at 1 mM; cited from earlier work

Hoe-140 [reference compound]
inhibition of RCEC (viable cells) ([1]; P>0.05): no significant inhibition

des-Arg^9-[Leu^8]-bradykinin [reference compound]
block of bradykinin-induced endothelial cell proliferation (B1 receptor): completely block bradykinin-induced endothelial cell proliferation
viable cells, % of the control ([1]; P<0.05): 85 % of the control
